System: participants with SSc-RP
Assay: Average duration of weekly RP attacks (minutes)
Type: in vivo, human
Description: The absolute change in average duration of weekly RP attacks from baseline to the end of each dosing period was and will be a secondary outcome variable. The sponsor-developed participant-informed diary was and will be used to record data. Average duration of weekly RP attacks is defined as the total duration of RP attacks divided by total number of RP attacks within the last 7 days of each dosing period. Total duration of RP attacks during the last 7 days of screening period divided by the total number of RP attacks will be used as baseline for the analysis of all periods. The variable will be calculated similar to frequency data as before.

[1] = Cilnidipine 20 mg, Excluding Outliers, ITT Population - Part A
[2] = Cilnidipine 20 mg, Excluding Outliers, by Baseline RCS, subgroup 1, ITT Population - Part A
[3] = Cilnidipine 20 mg, by Baseline RCS, subgroup 1, ITT Population - Part A
[4] = Pooled Cilnidipine 10 mg and Cilnidipine 10 mg + Tadalafil 5 mg, n=3, Excluding Outliers, ITT Part A
[5] = Pooled Cilnidipine 10 mg and Cilnidipine 10 mg + Tadalafil 5 mg, n=3, ITT Part A
[6] = Pooled Cilnidipine 10 mg and Cilnidipine 10 mg + Tadalafil 5 mg, Baseline RCS subgroup 1 (unnamed), ITT Part A
[7] = Pooled Cilnidipine 10 mg and Cilnidipine 10 mg + Tadalafil 5 mg, Baseline RCS subgroup 2 (unnamed), ITT Part A
[8] = Pooled Cilnidipine 10 mg and Cilnidipine 10 mg + Tadalafil 5 mg, Excluding Outliers, Baseline RCS subgroup 1 (unnamed), ITT Part A
[9] = Pooled Cilnidipine 10 mg and Cilnidipine 10 mg + Tadalafil 5 mg, Excluding Outliers, Baseline RCS subgroup 2 (unnamed), ITT Part A
[10] = Pooled Cilnidipine 10 mg and Cilnidipine 10 mg + Tadalafil 5 mg, Excluding Outliers, ITT Population - Part A
[11] = Pooled Cilnidipine 10 mg and Cilnidipine 10 mg + Tadalafil 5 mg, Excluding Outliers, by Baseline RCS, subgroup 1, ITT Population - Part A

`COCCOC(=O)C1=C(C)NC(C)=C(C(=O)OC/C=C/c2ccccc2)C1c1cccc([N+](=O)[O-])c1` (centres unmarked) [Cilnidipine, cilnidipine] was tested, and the “Average Duration of Weekly RP Attacks (All Attacks) Change from Baseline, Median” value [1] was -1.09 min, the “Average Duration of Weekly RP Attacks (All Attacks) Percent Change from Baseline, Mean” value [1] was −24.97% and the “Average Duration of Weekly RP Attacks (All Attacks) Percent Change from Baseline, Median” value [1] was −24.97%. For the same compound, the “Average Duration of Weekly RP Attacks (All Attacks), Mean” value (from here on “Average Duration … (All Attacks), Mean”) [1] was 16.73 min, the “Average Duration of Weekly RP Attacks (All Attacks), Median” value (“Average Duration … (All Attacks), Median” for short) [1] was 16.73 min and the “Average Duration of Weekly RP Attacks (All Attacks) Change from Baseline, Mean” value [2] was -1.09 min. The “Average Duration of Weekly RP Attacks (All Attacks) Change from Baseline, Median” value [2] was -1.09 min, the “Average Duration of Weekly RP Attacks (All Attacks) Percent Change from Baseline, Mean” value [2] was −24.97% and the “Average Duration of Weekly RP Attacks (All Attacks) Percent Change from Baseline, Median” value [2] was −24.97%. For the same compound, the “Average Duration … (All Attacks), Mean” value [2] was 16.73 min, the “Average Duration … (All Attacks), Median” value [2] was 16.73 min and the “Average Duration of Weekly RP Attacks (All Attacks) Change from Baseline, Mean” value (Cilnidipine 20 mg, ITT Part A) was -1.09 min. The “Average Duration of Weekly RP Attacks (All Attacks) Change from Baseline, Median” value (Cilnidipine 20 mg, ITT Part A) was -1.09 min, the “Average Duration of Weekly RP Attacks (All Attacks) Percent Change from Baseline, Mean” value (Cilnidipine 20 mg, ITT Part A) was −24.97% and the “Average Duration of Weekly RP Attacks (All Attacks) Percent Change from Baseline, Median” value (Cilnidipine 20 mg, ITT Part A) was −24.97%. The “Average Duration … (All Attacks), Mean” value (Cilnidipine 20 mg, ITT Part A) was 16.73 min, the “Average Duration … (All Attacks), Median” value (Cilnidipine 20 mg, ITT Part A) was 16.73 min and the “Average Duration of Weekly RP Attacks (All Attacks) Change from Baseline, Mean” value [3] was -1.09 min. The “Average Duration of Weekly RP Attacks (All Attacks) Change from Baseline, Median” value [3] was -1.09 min, the “Average Duration of Weekly RP Attacks (All Attacks) Percent Change from Baseline, Mean” value [3] was −24.97% and the “Average Duration of Weekly RP Attacks (All Attacks) Percent Change from Baseline, Median” value [3] was −24.97%. For the same compound, the “Average Duration … (All Attacks), Mean” value [3] was 16.73 min, the “Average Duration … (All Attacks), Median” value [3] was 16.73 min and the Duration (Cilnidipine (20 mg) (n = 3)) was −20%. For the same compound, the “Mean % reduction in duration” value (Cilnidipine (20 mg) (n = 3)) was 20.0%, the “Mean duration of attack at baseline” value (Cilnidipine (20 mg) (n = 3)) was 19.4 and the “Average Duration of Weekly Symptomatic RP Attacks, Change from Baseline, Mean” value [4] was -12.11 min. For the same compound, the “Average Duration of Weekly Symptomatic RP Attacks, Change from Baseline, Median” value [4] was -16.74 min, the “Average Duration of Weekly Symptomatic RP Attacks, Mean” value [4] was 29.46 min and the “Average Duration of Weekly Symptomatic RP Attacks, Median” value [4] was 31.64 min. For the same compound, the “Average Duration of Weekly Symptomatic RP Attacks, Percent Change from Baseline, Mean” value [4] was −22.40%, the “Average Duration of Weekly Symptomatic RP Attacks, Percent Change from Baseline, Median” value [4] was −33.84% and the “Average Duration of Weekly Symptomatic RP Attacks, Change from Baseline, Mean” value [5] was -12.11 min. For the same compound, the “Average Duration of Weekly Symptomatic RP Attacks, Change from Baseline, Median” value [5] was -16.74 min, the “Average Duration of Weekly Symptomatic RP Attacks, Mean” value [5] was 29.46 min and the “Average Duration of Weekly Symptomatic RP Attacks, Median” value [5] was 31.64 min. The “Average Duration of Weekly Symptomatic RP Attacks, Percent Change from Baseline, Mean” value [5] was −22.40%, the “Average Duration of Weekly Symptomatic RP Attacks, Percent Change from Baseline, Median” value [5] was −33.84% and the “Average Duration of Weekly Symptomatic RP Attacks, Change from Baseline, Mean” value [6] was -8.26 min. The “Average Duration of Weekly Symptomatic RP Attacks, Change from Baseline, Median” value [6] was -8.26 min, the “Average Duration of Weekly Symptomatic RP Attacks, Mean” value [6] was 24.82 min and the “Average Duration of Weekly Symptomatic RP Attacks, Median” value [6] was 24.82 min. The “Average Duration of Weekly Symptomatic RP Attacks, Percent Change from Baseline, Mean” value [6] was −16.67%, the “Average Duration of Weekly Symptomatic RP Attacks, Percent Change from Baseline, Median” value [6] was −16.67% and the “Average Duration of Weekly Symptomatic RP Attacks, Change from Baseline, Mean” value [7] was -19.82 min. The “Average Duration of Weekly Symptomatic RP Attacks, Change from Baseline, Median” value [7] was -19.82 min, the “Average Duration of Weekly Symptomatic RP Attacks, Mean” value [7] was 38.75 min and the “Average Duration of Weekly Symptomatic RP Attacks, Median” value [7] was 38.75 min. For the same compound, the “Average Duration of Weekly Symptomatic RP Attacks, Percent Change from Baseline, Mean” value [7] was −33.84%, the “Average Duration of Weekly Symptomatic RP Attacks, Percent Change from Baseline, Median” value [7] was −33.84% and the “Average Duration of Weekly Symptomatic RP Attacks, Change from Baseline, Mean” value [8] was -8.26 min. For the same compound, the “Average Duration of Weekly Symptomatic RP Attacks, Change from Baseline, Median” value [8] was -8.26 min, the “Average Duration of Weekly Symptomatic RP Attacks, Mean” value [8] was 24.82 min and the “Average Duration of Weekly Symptomatic RP Attacks, Median” value [8] was 24.82 min. For the same compound, the “Average Duration of Weekly Symptomatic RP Attacks, Percent Change from Baseline, Mean” value [8] was −16.67%, the “Average Duration of Weekly Symptomatic RP Attacks, Percent Change from Baseline, Median” value [8] was −16.67% and the “Average Duration of Weekly Symptomatic RP Attacks, Change from Baseline, Mean” value [9] was -19.82 min. For the same compound, the “Average Duration of Weekly Symptomatic RP Attacks, Change from Baseline, Median” value [9] was -19.82 min, the “Average Duration of Weekly Symptomatic RP Attacks, Mean” value [9] was 38.75 min and the “Average Duration of Weekly Symptomatic RP Attacks, Median” value [9] was 38.75 min. The “Average Duration of Weekly Symptomatic RP Attacks, Percent Change from Baseline, Mean” value [9] was −33.84%, the “Average Duration of Weekly Symptomatic RP Attacks, Percent Change from Baseline, Median” value [9] was −33.84% and the “Average Duration of Weekly RP Attacks (All Attacks) Change from Baseline, Mean” value [10] was -9.54 min. The “Average Duration of Weekly RP Attacks (All Attacks) Change from Baseline, Median” value [10] was -8.48 min, the “Average Duration of Weekly RP Attacks (All Attacks) Percent Change from Baseline, Mean” value [10] was −19.10% and the “Average Duration of Weekly RP Attacks (All Attacks) Percent Change from Baseline, Median” value [10] was −21.20%. The “Average Duration … (All Attacks), Mean” value [10] was 27.90 min, the “Average Duration … (All Attacks), Median” value [10] was 31.52 min and the “Average Duration of Weekly RP Attacks (All Attacks) Change from Baseline, Mean” value [11] was -4.13 min. For the same compound, the “Average Duration of Weekly RP Attacks (All Attacks) Change from Baseline, Median” value [11] was -4.13 min, the “Average Duration of Weekly RP Attacks (All Attacks) Percent Change from Baseline, Mean” value [11] was −9.97% and the “Average Duration of Weekly RP Attacks (All Attacks) Percent Change from Baseline, Median” value [11] was −9.97%. For the same compound, the “Average Duration … (All Attacks), Mean” value [11] was 24.76 min and the “Average Duration … (All Attacks), Median” value [11] was 24.76 min.
